Results published in patent publication US9763957B2, “Autotaxin inhibitors” (Novartis AG, priority 2013, dated 2017).
pIC50: −log10 of the molar value.

Target: Recombinant human ATX (Homo sapiens (Human), UniProt Q13822)
Assay: ATX inhibition assay (choline release, Amplex Red fluorescence)
Type: biochemical
Conditions: ATX 10 nM, LPC 18:1 10 μM, 37° C., 20 min pre-incubation; mean of n≧2
Summary of the method: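 Activity was taken from the slope of resorufin fluorescence (530/590 nm, read every 2 min for 40 min at 37 °C) produced by choline liberated from 10 μM oleoyl LPC.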

Structure (SMILES) | pIC50
Cc1nnn(Cc2cc(Cl)ccc2/C=C/C(=O)N2CCC(NC(=O)CCCc3c[nH]nn3)CC2)n1 [Example 151, (E)-N-(1-(3-(4-Chloro-2-((5-methyl-2H-tetrazol-2-yl)methyl)phenyl)acryloyl)piperidin-4-yl)-4-(1H-1,2,3-triazol-4-yl)butanamide] | 8.51
Cc1cc(CC(=O)N(C)C2CCN(C(=O)/C=C/c3ccc(C(F)(F)F)cc3Cn3nnc(C)n3)CC2)on1 [Example 95, (E)-N-Methyl-N-(1-(3-(2-((5-methyl-2H-tetrazol-2-yl)methyl)-4-(trifluoromethyl)phenyl)acryloyl)piperidin-4-yl)-2-(3-methylisoxazol-5-yl)acetamide] | 7.60
Cc1nnn(Cc2cc(C(F)(F)F)ccc2/C=C/C(=O)N2CCC(Cc3nnc(C)o3)CC2)n1 [Example 81, (E)-1-(4-((5-Methyl-1,3,4-oxadiazol-2-yl)methyl)piperidin-1-yl)-3-(2-((5-methyl-2H-tetrazol-2-yl)methyl)-4-(trifluoromethyl)phenyl)prop-2-en-1-one] | 7.89
Cc1nnn(Cc2cc(Cl)ccc2/C=C/C(=O)N2CCC(Oc3ccc(C(F)(F)F)cn3)CC2)n1 [Example 135, (E)-3-(4-Chloro-2-((5-methyl-2H-tetrazol-2-yl)methyl)phenyl)-1-(4-((5-(trifluoromethyl)pyridin-2-yl)oxy)piperidin-1-yl)prop-2-en-1-one] | 6.49
Cc1nnn(Cc2cccc(F)c2/C=C/C(=O)N2CCC(Cc3nnc(C)o3)CC2)n1 [Example 44, (E)-3-(2-Fluoro-6-((5-methyl-2H-tetrazol-2-yl)methyl)phenyl)-1-(4-((5-methyl-1,3,4-oxadiazol-2-yl)methyl)piperidin-1-yl)prop-2-en-1-one] | 6.27

Now from value to compound:

pIC50 | Structure (SMILES)
7.11 | COC(=O)C1COCCN1C(=O)/C=C/c1ccc(Cl)cc1Cn1nnc(C)n1 (centres unmarked) [Example 49.23, (E)-Methyl 4-(3-(4-Chloro-2-((5-methyl-2H-tetrazol-2-yl)methyl)phenyl)acryloyl)morpholine-3-carboxylate]
8.46 | Cc1noc(C2CCCCN2C(=O)/C=C/c2ccc(C(F)(F)F)cc2Cn2nnc(C)n2)n1 (single isomer, unassigned) [Example 5a, (R,E)-1-(2-(3-methyl-1,2,4-oxadiazol-5-yl)piperidin-1-yl)-3-(2-((5-methyl-2H-tetrazol-2-yl)methyl)-4-(trifluoromethyl)phenyl)prop-2-en-1-one or (S,E)-1-(2-(3-methyl-1,2,4-oxadiazol-5-yl)piperidin-1-yl)-3-(2-((5-methyl-2H-tetrazol-2-yl)methyl)-4-(trifluoromethyl)phenyl)prop-2-en-1-one]
8.23 | COc1ccc(CN2CCN(C(=O)/C=C/c3ccc(Cl)cc3Cn3nnc(C)n3)CC2)nc1 [Example 140.1, (E)-3-(4-Chloro-2-((5-methyl-2H-tetrazol-2-yl)methyl)phenyl)-1-(4-((5-methoxypyridin-2-yl)methyl)piperazin-1-yl)prop-2-en-1-one]
